Patent US20220370545A1, “INTEGRIN RECEPTOR ALPHA V BETA 3 AND ITS LIGAND INVOLVED IN CHRONIC ITCH” (North Carolina State University, priority 2019, published 2022)

B1: periostin: fasciclin extracellular matrix protein, endogenous ligand of integrin αvβ3; mouse recombinant used (protein)
chain: NSYYDKVLAHSRIRGRDQGPNVCALQQILGTKKKYFSSCKNWYQGAICGKKTTVLYECCPGYMRMEGMKGCPAVMPIDHVYGTLGIVGATTTQHYSDVSKLREEIEGKGSYTYFAPSNEAWENLDSDIRRGLENNVNVELLNALHSHMVNKRMLTKDLKHGMVIPSMYNNLGLFINHYPNGVVTVNCARVIHGNQIATNGVVHVIDRVLTQIGTSIQDFLEAEDDLSSFRAAAITSDLLESLGRDGHFTLFAPTNEAFEKLPRGVLERIMGDKVASEALMKYHILNTLQCSEAITGGAVFETMEGNTIEIGCEGDSISINGIKMVNKKDIVTKNGVIHLIDEVLIPDSAKQVIELAGKQQTTFTDLVAQLGLASSLKPDGEYTLLAPVNNAFSDDTLSMDQRLLKLILQNHILKVKVGLSDLYNGQILETIGGKQLRVFVYRTAICIENSCMVRGSKQGRNGAIHIFREIIQPAEKSLHDKLRQDKRFSIFLSLLEAADLKDLLTQPGDWTLFAPTNDAFKGMTSEERELLIGDKNALQNIILYHLTPGVYIGKGFEPGVTNILKTTQGSKIYLKGVNETLLVNELKSKESDIMTTNGVIHVVDKLLYPADIPVGNDQLLELLNKLIKYIQIKFVRGSTFKEIPMTVYRPAMTKIQIEGDPDFRLIKEGETVTEVIHGEPVIKKYTKIIDGVPVEITEKQTREERIITGPEIKYTRISTGGGETGETLQKFLQKEVSKVTKFIEGGDGHLFEDEEIKRLLQGDTPAKKIPANKRVQGPRRRSREGRSQ

How the values were obtained:
[1] = system: periostin-induced itch behavior in mice; test: Scratching behavior after intradermal periostin injection in the dorsal neck of mice; assay type: in vivo, mouse
Method: All behavioral experiments were conducted during the light cycle at ambient temperature (23° C.). Behavioral assessment of scratching behavior was conducted as described previously (Mishra et al., 2011). Briefly, mice were injected intradermal into the nape of the neck with periostin (R&D), histamine, and chloroquine (all Millipore-Sigma) as previously described (Shimada and LaMotte, 2008). Compounds were diluted in PBS and the same was used as a vehicle. […] Scratching behavior was recorded for 30 minutes and data was presented in bouts per 30 minutes for mice. One bout was defined as scratching behavior toward the injection site between lifting the hind leg from the ground and either putting it back on the ground or guarding the paw with the mouth. Injections of periostin, and capsaicin in the mouse cheek itch/pain model were performed as described previously (Shimada and LaMotte, 2008). For eye wipes assay, periostin and capsaicin were dropped on mouse cornea and counted wipes for 1-minute. Injection volume was always 20 μl in mice. For dog's study, periostin (25 μg/25 μl) was injected in the dorsal neck (s.c.) and behavior was recorded and quantified for 30 minutes as “duration of pruritus manifestation” (DPM), as described earlier (Paps et al., 2016). For non-human primate (NHP) studies, periostin (25 μg/100 μl) was injected in the NHP thigh (s.c.) on the lateral side of the upper part of the hind limb; the skin area over the vastus lateralis muscle. The lateral side of the upper part of the hind limb was chosen as an injection site because this location is safe and easy to access when the animal is in a chair. The number of scratches is easily countable in NHP. When different raters separately scored a single tape, the ratings indicated high interrater reliability (coefficient of correlation, r>0.95). This method of itch readout in NHP has been used and accepted (Ko and Naughton, 2000). The behavior was recorded for 30 minutes duration and number of scratches quantified. In NHP, a scratch is defined as one brief (<1 s) episode of scraping contact of the forepaw or hind paw on the skin surface

[2] = system: Integrin αvβ3 on DRG Sensory Neurons; test: Fura-2 calcium imaging of periostin-induced calcium response in cultured DRG sensory neurons; assay type: cell-based, mouse; settings: periostin 16 ng/μl
Method: DRGs were isolated from mice and dissociated in 1 mL of media containing 2.5 U/mL of dispase (Fisher Scientific, Hampton, New Hampshire, United States of America) and 2.5 mg/mL of collagenase (Fisher Scientific, Hampton, New Hampshire, United States of America). After dissociation, the cells were washed with complete media (DMEM (HiMedia Laboratories, Mumbai, India) with 10% FBS (Atlanta Biologicals, Flowery Branch, Georgia, United States of America) and 1% PenStrep (VWR International, Radnor, Pa., United States of America)) and pelleted at 1000 rpm for 15 minutes. Approximately 30 μL of the cell suspension was plated on 18 mm round glass slides with a coating of laminin (Sigma Aldrich, St. Louis, Miss., United States of America) and poly-L-lysine (Sigma Aldrich, St. Louis, Miss., United States of America) and incubated for 1.5 hours. Afterwards, 1 mL of complete media was added, and the cells were incubated overnight. All incubation steps were done at 37° C. with 5% CO2.
Before imaging, cells were incubated in 350 μL of complete media containing 1 μM Fura-2 AM (Enzo Life Sciences, Farmingdale, New York, United States of America) for 30 min at 37° C. with 5% CO2. During imaging, the cells were perfused with a buffer containing the following: 135 mM sodium chloride, 3.2 mM potassium chloride, 2.5 mM magnesium chloride, 2.8 mM calcium chloride, 667 μM monobasic sodium phosphate, 14.2 mM sodium bicarbonate, and 10.9 mM D-glucose (all from VWR International, Radnor, Pennsylvania, United States of America) with a pH between 7.00 and 7.40. The buffer and the holding plate were kept at 37° C. while imaging. Imaging data was collected on a TE200 inverted microscope using NIS Elements software (Nikon, Melville, New York, United States of America). Cells were exposed to 340 nm and 380 nm wavelengths for 100 ms and the A340/A380 ratio was calculated. Traces were analyzed using Excel and responses greater than 10% of the baseline were counted. Each data point in the scatter plots represented one coverslip.
Calcium Imaging: Calcium imaging will be performed on the DRG neurons as previously described (Pitake et al., 2018). Briefly, DRG neurons will be incubated for longer than 30 min in DMEM containing 1 μM of a fluorescent indicator Fura-2 AM (Enzo Life Sciences, Inc., Farmingdale, N.Y., United States of America). The neurons will be perfused in a standard bath solution containing 140 mM NaCl, 5 mM KCl, 2 mM MgCl2, 2 mM CaCl2, 10 mM Hepes and 10 mM D-glucose at pH 7.4 adjusted with NaOH. A calcium-free bath solution will be prepared by omitting 2 mM CaCl2 from the standard bath solution […] adding 5 mM EGTA. Fura-2 fluorescence excited at 340 and 380 nm and emission will be monitored at 510 nm with a digital CCD camera (Andor Clara DR-4152, Andor Technology Ltd, Belfast, United Kingdom). Data will be obtained by every 100 ms using an imaging software (NIS-Elements AR 4.13.04, Nikon Corporation, Tokyo, Japan) and analyzed by Microsoft Excel (Microsoft Corporation, Redmond, Wash., United States of America). Values of calcium responses will be normalized by dividing measured values (F) with average values of initial 5 frames (F0) of each cell and described as F/F0. In this study, changes in each response to an application with F/F0>0.1 will be regarded as positive. Cells not responding to 100 mM KCl, which is applied at the end of each experiment, will be regarded as non-neuronal cells and excluded from analysis.
Periostin (10 ug/ml) will be used to evoke calcium influx. This response has been optimized. The peptide inhibitors will be tested on DRG neurons to measure calcium influx in response to periostin. Data on calcium imaging will be presented by presenting each mouse±SEM. The IC50 value of the inhibitor will also be determined
Additional inhibitors were studied using the calcium imaging method described in Example 3. Briefly, the Fura2-AM calcium imaging method was performed on live dorsal root ganglia (DRG) neurons (ex vivo). […]

Row | Molecule | periostin-induced itch behavior ([1]; cilengitide 100 nM i.p. 10 minutes prior to periostin i.d. (5 μg/20 μl)) | periostin-induced itch behavior ([1]; cilengitide 100 nM i.v. 10 minutes prior to periostin i.d. (5 μg/20 μl)) | itch behavior after cilengitide alone ([1]; cilengitide injected alone, no periostin) | comparison of inhibitory effect among routes of injection ([1]; intravenous pre-injection versus i.p. and mix) | periostin-induced itch behavior ([1]; periostin and cilengitide mixed together and injected s.c.) | periostin-dependent calcium response ([2]; perfusion with 100 nM cilengitide) | scratching behavior after periostin injection ([1]; single i.d. injection 5 μg/20 μl in dorsal neck, within 15 minutes) | DRG sensory neurons with periostin-dependent changes in intracellular calcium [2]
1 | CC(C)[C@H]1C(=O)N[C@@H](CCCN=C(N)N)C(=O)NCC(=O)N[C@@H](CC(=O)O)C(=O)N[C@H](Cc2ccccc2)C(=O)N1C [cilengitide, cyclo RGDf-n(Me)V] | significantly reduced | significantly reduced | did not induce itch behavior | strongest inhibitory effect | significantly reduced | significantly reduced |  | 
2 | B1 |  |  |  |  |  |  | robust scratching behavior | about 10±2%
